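Exposure lasted 48 hours, with cells grown in 96-well plates and compounds tested at five concentrations. GI50: concentration for 50% inhibition of growth. TGI denotes the concentration required for complete inhibition of growth.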
Key:
Assay in all cases: NCI-60 cell line screen, 48 h; in the data active = GI50 below about 0.43 µM; inactive = the rest
[1] = test system: MCF7 breast
[2] = test system: SK-MEL-2 melanoma
[3] = test system: HS 578T breast
[4] = test system: NCI-H226 lung
[5] = test system: KM12 colon
[6] = test system: OVCAR-3 ovarian
[7] = test system: MALME-3M melanoma
[8] = test system: COLO 205 colon
[9] = test system: RPMI-8226 leukemia
[10] = test system: HCC-2998 colon
[11] = test system: UACC-257 melanoma
[12] = test system: SNB-75 CNS
[13] = test system: SF-295 CNS
[14] = test system: NCI-H460 lung
[15] = test system: MDA-MB-231 breast
[16] = test system: M14 melanoma
[17] = test system: CCRF-CEM leukemia
[18] = test system: DU-145 prostate
[19] = test system: UACC-62 melanoma
[20] = test system: MDA-MB-435
[21] = test system: BT-549 breast
[22] = test system: SNB-19 CNS
[23] = test system: HOP-62 NSCLC
[24] = test system: SF-539 CNS
[25] = test system: SK-OV-3 ovarian
[26] = test system: EKVX NSCLC
[27] = test system: NCI-H522 lung
[28] = test system: A549 NSCLC
[29] = test system: ACHN renal
[30] = test system: SF-268 CNS
[31] = test system: A498 renal
[32] = test system: OVCAR-4 ovarian
[33] = test system: OVCAR-8 ovarian
[34] = test system: RXF 393 renal
[35] = test system: HT29 colon
[36] = test system: U251 CNS
[37] = test system: NCI/ADR-RES ovarian
[38] = test system: T-47D breast
[39] = test system: TK-10 renal
[40] = test system: PC-3 prostate
[41] = test system: HCT-116 colon
[42] = test system: SW-620 colon
[43] = test system: SK-MEL-5 melanoma
[44] = test system: HOP-92 NSCLC
[45] = test system: HCT-15 colon
[46] = test system: LOX IMVI melanoma
[47] = test system: IGROV1 ovarian
[48] = test system: CAKI-1 renal
[49] = test system: OVCAR-5 ovarian
[50] = test system: SN12C renal
[51] = test system: UO-31 renal
[52] = test system: 786-0 renal
[53] = test system: NCI-H23 lung
[54] = test system: SK-MEL-28 melanoma

COc1ccccc1/C=C/C(=O)c1c(O)cc2occc2c1OC
55.6 µM: TGI [13]
84.4 µM: TGI [25]
43.9 µM: TGI [23]
98.4 µM: TGI [52]
62.7 µM: TGI [39]
42.6 µM: TGI [34]
26.3 µM: TGI [12]
> 100 µM: TGI [1] | TGI [2] | TGI [3] | TGI [4] | TGI [5] | TGI [6] | TGI [8] | TGI [9] | TGI [10] | TGI [11] | TGI [14] | TGI [15] | TGI [16] | TGI [17] | TGI [18] | TGI [19] | TGI [20] | TGI [21] | TGI [22] | TGI [24] | TGI [26] | TGI [27] | TGI [28] | TGI [29] | TGI [30] | TGI [31] | TGI [32] | TGI [33] | TGI [35] | TGI [36] | TGI [37] | TGI [38] | TGI [40] | TGI [41] | TGI [42] | TGI [43] | TGI [45] | TGI [46] | TGI [47] | TGI [48] | TGI [49] | TGI [50] | TGI [51] | TGI [53] | TGI [54]
inactive: GI50 [1] 9.56 µM | GI50 [2] > 100 µM | GI50 [3] 38.2 µM | GI50 [4] 25.1 µM | GI50 [5] > 100 µM | GI50 [6] 47.4 µM | GI50 [7] 18.9 µM | GI50 [8] > 100 µM | GI50 [9] 23.5 µM | GI50 [10] > 100 µM | GI50 [11] > 100 µM | GI50 [12] 7.49 µM | GI50 [13] 16.6 µM | GI50 [14] > 100 µM | GI50 [15] 33.1 µM | GI50 [16] > 100 µM | GI50 [17] 9.72 µM | GI50 [18] 23.5 µM | GI50 [19] 23.7 µM | GI50 [20] 5.96 µM | GI50 [21] 28.2 µM | GI50 [22] 30.8 µM | GI50 [23] 19.3 µM | GI50 [24] 24.3 µM | GI50 [25] 21.3 µM | GI50 [26] 37.1 µM | GI50 [27] > 100 µM | GI50 [28] > 100 µM | GI50 [29] 30 µM | GI50 [30] 22.2 µM | GI50 [31] 46 µM | GI50 [32] > 100 µM | GI50 [33] 53.8 µM | GI50 [34] 14.9 µM | GI50 [35] > 100 µM | GI50 [36] 18.9 µM | GI50 [37] 29.6 µM | GI50 [38] 55.9 µM | GI50 [39] 21.9 µM | GI50 [40] > 100 µM | GI50 [41] 40.4 µM | GI50 [42] > 100 µM | GI50 [43] > 100 µM | GI50 [44] 2.98 µM | GI50 [45] > 100 µM | GI50 [46] 30.1 µM | GI50 [47] 26 µM | GI50 [48] > 100 µM | GI50 [49] > 100 µM | GI50 [50] > 100 µM | GI50 [51] > 100 µM | GI50 [52] 35.3 µM | GI50 [53] 22.4 µM | GI50 [54] > 100 µM
80.6 µM: TGI [7]
26.6 µM: TGI [44]
